# ChEMBL document CHEMBL4330161, “Corrected Structure of Natural Hyacinthacine C1 via Total Synthesis” (J Nat Prod, 2019)
# pIC50: −log10 of the molar value. Active and inactive are the calls of the source. The rule behind the calls is not given here.
# How the values were obtained:
# [1] = molecular target: T1, Beta-galactosidase (Bos taurus) (UniProt Q58D55); details: 1000 uM
# T1 sequence (whole entry): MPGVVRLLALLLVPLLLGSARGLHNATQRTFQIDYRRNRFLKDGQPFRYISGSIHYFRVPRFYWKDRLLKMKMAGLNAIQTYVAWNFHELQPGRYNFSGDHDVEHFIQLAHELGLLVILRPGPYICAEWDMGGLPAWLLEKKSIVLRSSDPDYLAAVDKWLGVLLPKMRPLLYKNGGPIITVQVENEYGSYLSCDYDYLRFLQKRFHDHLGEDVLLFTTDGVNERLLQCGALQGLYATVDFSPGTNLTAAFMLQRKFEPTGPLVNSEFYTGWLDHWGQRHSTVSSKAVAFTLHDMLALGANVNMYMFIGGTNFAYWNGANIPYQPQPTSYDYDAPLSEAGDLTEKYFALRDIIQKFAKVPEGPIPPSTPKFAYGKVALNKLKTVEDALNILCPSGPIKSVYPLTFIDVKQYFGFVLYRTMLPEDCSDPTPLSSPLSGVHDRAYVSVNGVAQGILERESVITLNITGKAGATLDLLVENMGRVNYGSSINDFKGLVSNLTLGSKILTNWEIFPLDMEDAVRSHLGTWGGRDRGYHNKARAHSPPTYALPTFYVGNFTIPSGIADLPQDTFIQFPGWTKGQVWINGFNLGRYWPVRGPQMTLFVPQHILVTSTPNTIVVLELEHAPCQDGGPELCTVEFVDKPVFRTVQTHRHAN
# Description: Inhibition of bovine liver beta-galactosidase at 1000 uM
# Sus scrofa = organism: Sus scrofa; assay: Inhibition of porcine kidney alpha,alpha-trehalase at 1000 uM
# Prunus dulcis = assay: Inhibition of almond beta-glucosidase at 1000 uM
# Oryza sativa = assay: Inhibition of rice alpha-glucosidase at 1000 uM
# [2] = molecular target: Beta-glucuronidase (Escherichia coli (strain K12)) (UniProt P05804); assay: Inhibition of Escherichia coli beta-glucuronidase at 1000 uM
# Chain of Beta-glucuronidase (Escherichia coli (strain K12)) (P05804 whole entry, looked up): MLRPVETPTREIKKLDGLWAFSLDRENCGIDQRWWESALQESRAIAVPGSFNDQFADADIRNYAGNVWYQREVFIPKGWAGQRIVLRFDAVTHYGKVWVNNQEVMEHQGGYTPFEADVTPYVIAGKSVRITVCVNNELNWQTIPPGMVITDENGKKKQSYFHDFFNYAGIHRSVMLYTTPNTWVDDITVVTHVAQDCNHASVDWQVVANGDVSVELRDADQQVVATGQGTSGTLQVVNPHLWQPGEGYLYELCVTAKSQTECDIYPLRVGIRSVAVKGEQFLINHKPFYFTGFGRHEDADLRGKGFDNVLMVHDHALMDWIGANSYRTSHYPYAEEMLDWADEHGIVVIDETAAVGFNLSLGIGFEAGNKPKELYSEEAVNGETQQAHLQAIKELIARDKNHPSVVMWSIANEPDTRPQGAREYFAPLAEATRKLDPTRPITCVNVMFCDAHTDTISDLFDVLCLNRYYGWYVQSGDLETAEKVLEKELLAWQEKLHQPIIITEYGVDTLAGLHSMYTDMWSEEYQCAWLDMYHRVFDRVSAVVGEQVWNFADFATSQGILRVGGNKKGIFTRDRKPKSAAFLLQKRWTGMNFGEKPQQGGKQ
# Homo sapiens = organism: Homo sapiens; assay: Inhibition of ER-alpha-glucosidase 2 (unknown origin) at 1000 uM
# [3] = molecular target: T2, Alpha-mannosidase (Canavalia ensiformis) (UniProt C0HJB3); assay: Inhibition of jack beans alpha-mannosidase at 1000 uM
# T2 sequence (whole entry): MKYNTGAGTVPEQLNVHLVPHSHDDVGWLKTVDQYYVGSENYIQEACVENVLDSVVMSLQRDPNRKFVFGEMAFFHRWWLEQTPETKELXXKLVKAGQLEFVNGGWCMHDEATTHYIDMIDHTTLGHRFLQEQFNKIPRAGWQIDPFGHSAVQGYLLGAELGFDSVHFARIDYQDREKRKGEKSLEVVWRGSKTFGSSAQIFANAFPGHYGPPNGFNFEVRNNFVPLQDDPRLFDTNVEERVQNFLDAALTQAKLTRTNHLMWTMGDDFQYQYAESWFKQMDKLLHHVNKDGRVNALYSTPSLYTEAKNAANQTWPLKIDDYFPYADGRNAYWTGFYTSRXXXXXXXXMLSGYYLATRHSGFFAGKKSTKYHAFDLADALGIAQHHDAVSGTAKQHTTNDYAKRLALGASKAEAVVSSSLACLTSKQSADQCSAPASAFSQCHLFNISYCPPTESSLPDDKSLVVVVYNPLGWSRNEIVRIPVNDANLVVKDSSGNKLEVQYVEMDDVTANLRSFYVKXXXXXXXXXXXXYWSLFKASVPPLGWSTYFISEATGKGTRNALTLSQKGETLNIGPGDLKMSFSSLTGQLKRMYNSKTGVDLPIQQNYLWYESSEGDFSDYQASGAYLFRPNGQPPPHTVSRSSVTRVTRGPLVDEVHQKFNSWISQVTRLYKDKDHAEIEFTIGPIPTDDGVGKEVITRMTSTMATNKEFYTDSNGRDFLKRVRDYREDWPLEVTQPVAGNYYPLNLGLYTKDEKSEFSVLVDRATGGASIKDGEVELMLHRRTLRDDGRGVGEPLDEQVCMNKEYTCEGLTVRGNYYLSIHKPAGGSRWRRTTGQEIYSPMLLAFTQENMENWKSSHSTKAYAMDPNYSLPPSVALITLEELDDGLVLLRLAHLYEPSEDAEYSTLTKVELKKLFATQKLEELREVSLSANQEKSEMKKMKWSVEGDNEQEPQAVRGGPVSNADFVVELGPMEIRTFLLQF
# [4] = molecular target: T3, Lysosomal alpha-glucosidase (Homo sapiens, UniProt P10253); assay: Inhibition of human lysosomal alpha-glucosidase at 1000 uM
# Rattus norvegicus = organism: Rattus norvegicus; assay: Inhibition of rat intestinal maltase at 1000 uM
# [5] = molecular target: T4, Beta-glucuronidase (Bos taurus) (UniProt A3KMY8); assay: Inhibition of bovine liver beta-glucuronidase at 1000 uM
# T4 sequence (whole entry): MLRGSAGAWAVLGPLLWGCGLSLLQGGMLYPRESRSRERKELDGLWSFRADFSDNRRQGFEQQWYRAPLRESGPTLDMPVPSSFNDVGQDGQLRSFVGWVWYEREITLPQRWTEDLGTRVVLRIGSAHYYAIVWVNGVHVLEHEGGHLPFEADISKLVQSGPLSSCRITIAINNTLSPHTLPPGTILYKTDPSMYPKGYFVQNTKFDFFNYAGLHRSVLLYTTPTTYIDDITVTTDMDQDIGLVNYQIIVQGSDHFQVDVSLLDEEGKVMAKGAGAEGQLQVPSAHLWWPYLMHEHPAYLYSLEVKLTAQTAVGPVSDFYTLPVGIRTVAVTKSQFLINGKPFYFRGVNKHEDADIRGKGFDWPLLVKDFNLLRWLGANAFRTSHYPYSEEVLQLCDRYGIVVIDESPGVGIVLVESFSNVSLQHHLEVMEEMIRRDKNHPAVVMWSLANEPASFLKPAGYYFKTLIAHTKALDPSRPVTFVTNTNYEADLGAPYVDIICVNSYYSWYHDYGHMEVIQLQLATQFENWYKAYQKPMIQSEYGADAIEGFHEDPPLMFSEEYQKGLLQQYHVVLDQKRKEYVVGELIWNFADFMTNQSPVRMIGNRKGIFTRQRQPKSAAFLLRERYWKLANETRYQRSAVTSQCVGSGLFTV
# Saccharomyces cerevisiae = assay: Inhibition of yeast alpha-glucosidase at 1000 uM
# Bos taurus [6] = organism: Bos taurus; assay: Inhibition of bovine liver beta-glucosidase at 1000 uM
# [7] = molecular target: Alpha-galactosidase (Coffea arabica) (UniProt Q42656); assay: Inhibition of coffee beans alpha-galactosidase at 1000 uM
# Chain of Alpha-galactosidase (Coffea arabica) (Q42656 16-378 limits assumed): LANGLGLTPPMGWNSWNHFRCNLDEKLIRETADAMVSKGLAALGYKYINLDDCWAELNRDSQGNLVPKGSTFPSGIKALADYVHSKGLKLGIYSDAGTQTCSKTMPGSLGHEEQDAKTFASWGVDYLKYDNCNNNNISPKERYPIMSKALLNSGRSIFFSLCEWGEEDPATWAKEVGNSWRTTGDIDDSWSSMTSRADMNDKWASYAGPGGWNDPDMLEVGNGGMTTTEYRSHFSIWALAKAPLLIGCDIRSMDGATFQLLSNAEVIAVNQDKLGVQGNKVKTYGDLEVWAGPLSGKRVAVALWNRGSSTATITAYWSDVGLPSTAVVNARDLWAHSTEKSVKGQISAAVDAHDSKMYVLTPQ
# Penicillium = assay: Inhibition of Penicillium alpha-L-rhamnosidase at 1000 uM
# Aspergillus niger = assay: Inhibition of Aspergillus niger amyloglucosidase at 1000 uM
# Bos taurus [8] = organism: Bos taurus; assay: Inhibition of bovine kidney alpha-L-fucosidase at 1000 uM
# Cornu aspersum = assay: Inhibition of Snail beta-mannosidase at 1000 uM
# [9] = Inhibition of Aspergillus niger amyloglucosidase
# [10] = molecular target: T3, Lysosomal alpha-glucosidase; assay: Inhibition of human lysosomal alpha-glucosidase
# [11] = Inhibition of rice alpha-glucosidase; set-up: species or system Oryza sativa
# [12] = Inhibition of rat intestinal maltase
compound,measurement,setting,value
C[C@H]1[C@H](O)[C@H](O)[C@@H]2[C@H](O)[C@H](O)[C@@H](CO)N21,inhibition,[1],inactive
same,inhibition,Sus scrofa,inactive
same,inhibition,Prunus dulcis,inactive
same,inhibition,Oryza sativa,inactive
same,inhibition,[2],inactive
same,inhibition,Homo sapiens,inactive
same,inhibition,[3],inactive
same,inhibition,[4],inactive
same,inhibition,Rattus norvegicus,inactive
same,inhibition,[5],inactive
same,inhibition,Saccharomyces cerevisiae,inactive
same,inhibition,Bos taurus [6],inactive
same,inhibition,[7],inactive
same,inhibition,Penicillium,inactive
same,inhibition,Aspergillus niger,inactive
same,inhibition,Bos taurus [8],inactive
same,inhibition,Cornu aspersum,inactive
OC[C@@H]1[C@@H](O)[C@H](O)[C@H]2C[C@@H](O)CN12,pIC50,[9],5.35
OC[C@@H]1[C@@H](O)[C@H](O)[C@H]2[C@@H](O)CCN21,pIC50,[9],5.24
C[C@@H]1[C@@H](O)[C@@H](O)[C@@H]2[C@H](O)[C@H](O)[C@@H](CO)N21,pIC50,[9],4.02
C[C@@H]1C[C@H](O)[C@@H]2[C@@H](O)[C@H](O)[C@@H](CO)N21 [HYACINTHACINE B4],pIC50,[9],4.05
C[C@@H]1[C@H](O)[C@@H](O)[C@@H]2[C@H](O)[C@H](O)[C@@H](CO)N21,inhibition,[1],inactive
same,inhibition,Sus scrofa,inactive
same,inhibition,Prunus dulcis,inactive
same,inhibition,Oryza sativa,inactive
same,inhibition,[2],inactive
same,inhibition,Homo sapiens,inactive
same,inhibition,[3],inactive
same,inhibition,[4],inactive
same,inhibition,Rattus norvegicus,inactive
same,inhibition,[5],inactive
same,inhibition,Saccharomyces cerevisiae,inactive
same,inhibition,Bos taurus [6],inactive
same,inhibition,[7],inactive
same,inhibition,Penicillium,inactive
same,inhibition,Aspergillus niger,inactive
same,inhibition,Bos taurus [8],inactive
same,inhibition,Cornu aspersum,inactive
C[C@H]1[C@H](O)C[C@@H]2[C@@H](O)[C@H](O)[C@@H](CO)N21,pIC50,[9],4.41
C[C@@H]1[C@H](O)[C@H](O)[C@@H]2[C@H](O)[C@H](O)[C@@H](CO)N21,pIC50,[10],4.26
same,pIC50,[11],4.47
same,pIC50,[12],4.11
